The values below come from paper PMC4941945 (Current protocols in pharmacology / editorial board, S.J. …, 2015).

One experiment deals with sigma-1 receptor (S1R). The following applies: read-out: KI S1R, cited from earlier work.
Another experiment has as its target sigma-2 receptor (S2R). The note with it: read-out: KI S2R, cited from earlier work.
The subject of another experiment is S1R + S2R. Nature of the experiment: Saturation binding of [3H]-DTG in rat liver. The following applies: RL membranes.
A further experiment has as its system S1R knockout mice. The note with it: ref Fontanilla et al., 2009; cited from earlier work.
[1] abbreviates: ref 1 Matsumoto RR et al. (1995) EJP 280: 301-310.
Setting [2] is: ref 8 Husbands SM et al (1997) J Med Chem 40:4340-4346.
The mark [3] stands for this setting: ref 2 Fontanilla D et al. (2009) Science 323(5916): 934-937.

Read-outs that look alike come from different tables or passages of the source.

Take `CN(C)CCN(C)CCc1ccc(Cl)c(Cl)c1` [BD1047]: the Ki at sigma-1 receptor (S1R) (setting [1]) was 0.93 nM; at sigma-2 receptor (S2R) (setting [1]) it was 47 nM.

Take `C[C@@H]1CN(CCCn2c3ccccc3c3ccccc32)C[C@H](C)N1` [Rimcazole]: the values for the Ki at sigma-1 receptor (S1R) (setting [2]) and on sigma-2 receptor (S2R) (setting [2]) were […] and 386 nM, respectively.

Turning to `CN1CCN(CCc2ccc(Cl)c(Cl)c2)CC1` [BD1063], the Ki is 9.2 nM at sigma-1 receptor (S1R) (setting [1]) and 449 nM at sigma-2 receptor (S2R) (setting [1]).

On to `Cc1ccccc1NC(=N)Nc1ccccc1C` [[^3H]-DTG, [^3H]-1,3-di(2-tolyl)guanidine], for which the “S1R + S2R Binding, Specific Binding” value in the experiment with S1R + S2R (measured [3H]-DTG concentration 0.25 nM) is reported as 0.44 pmol/mg; in the experiment on S1R + S2R (measured [3H]-DTG concentration 0.8 nM) it was 0.94 pmol/mg; in the experiment on S1R + S2R (measured [3H]-DTG concentration 2.7 nM), 2.21 pmol/mg; in the experiment on S1R + S2R (measured [3H]-DTG concentration 9 nM), 6.52 pmol/mg; in the experiment on S1R + S2R (measured [3H]-DTG concentration 27 nM) it was 11.36 pmol/mg; in the experiment on S1R + S2R (measured [3H]-DTG concentration 92 nM) it was 18.55 pmol/mg. In addition, the “S1R + S2R Binding, Specific Binding” value in the experiment on S1R + S2R (measured [3H]-DTG concentration 310 nM) turned out to be 20.14 pmol/mg.

Turning to `CN(C)CCc1c[nH]c2ccccc12` [Dimethyltryptamine, N,N-dimethyltryptamine], the Ki on sigma-1 receptor (S1R) (setting [3]) is 14700 nM; on sigma-2 receptor (S2R) (setting [3]) it was 21700 nM. The “response in a behavioral assay measuring motor coordination” value in the experiment with S1R knockout mice is recorded as “failed to respond”.

Turning to `O=C(OCCN1CCOCC1)C1(c2ccccc2)CCCCC1` [PRE-084], the Ki on sigma-2 receptor (S2R) (ref 6 Maurice T. et al. (1999) Br J Pharmacol 127(2): 335-342) is 13100 nM.

For orientation: Ki means the equilibrium dissociation constant of an inhibitor or competing ligand from its target.
